Where “and” joins values, the source holds several entries; their conditions need not be identical. Equal entries are not always repeated. Where two headings read alike, the source gives them in different places.
Key:
Test in all cases: BLI direct binding
Set-up in all cases: species or system A. thaliana
[1] = target: T1, SPCH_ACTL (Arabidopsis thaliana, UniProt Q700C7)
T1 construct: SPCH-ACTL (285-364); GST (N, cleaved yes); made in house; host or cells: E. coli BL21
Source text: (§1) A. thaliana SCRM (1-494), ΔNSPCH (98-364), MUTE (1-202), ΔNFAMA (190-414), MUTEΔC (1-114), MUTER133A_R134A, MUTEE162A_E163A, MUTER133A_R134A_E162A_E163A, SCRM-ACTL (405-494), MUTE-ACTL (114-202), SPCH-ACTL (285-364), FAMA-ACTL (306-414), MUTE_ACTLR133A_R134A, MUTE_ACTLE162A_E163A, MUTE_ACTLR133A_R134A_E162A_E163A were cloned into pGEX-4T-1 vector with an N-terminal GST tag and a thrombin cleavage sequence. For protein expression, the constructs were transformed into E. coli strain BL21. For each transformant, a single colony was selected and incubated in 10 ml LB liquid media. The overnight-incubated E. coli suspensions were transferred to 1 L LB medium and incubated at 37 °C for around 2 h until the OD600 reached 0.4–0.6. The isopropyl β-D-1-thiogalactopyranoside ([…] of final concentration) was added to the cultures and the strains were incubated at 22 °C for a further 18 h. GST-fused proteins were purified using glutathione agarose resin. The soluble portion of the cell lysate was loaded onto a GST-Sepharose column. Nonspecifically bound proteins were removed by washing the column with 20 mM Tris pH 8.0, 200 mM NaCl. The bound GST-fused protein was eluted with 10 mm glutathione and 20 mM Tris pH 8.0, 200 mM NaCl. The GST-fused proteins were exchanged with phosphate-buffered saline buffer, and then the solution was treated with 50 μg of thrombin for 10–12 h at 16 ^οC. The GST portion of the protein was cleaved during thrombin digestion, and then the whole solution was reloaded onto the glutathione S-transferase column to obtain pure protein. The purified proteins were further purified by gel filtration on a Superdex-200 (GE) column using fast protein liquid chromatography and phosphate buffer (pH 7.2) as the eluent. The purity of the protein was checked by SDS-PAGE. For detailed lists of oligo DNA and plasmid information, see Supplementary Tables 5, 6, respectively.
(§2) The binding affinities of SCRM to MUTE / MUTER133A_R134A / MUTEE162A_E163A / MUTER133A_R134A_E162A_E163A in presence and absence of Stomidazolone (3) and its analogues (AYSJ1059 (5) and AYSJ1061 (6)), and Stomidazolone / AYSJ1059 / AYSJ1061 interactions with GST-tagged SCRM, MUTE, SPCH, FAMA, MUTE ΔACTL, MUTE_ACTL, SCRM_ACTL, SPCH_ACTL and FAMA_ACTL, MUTER133A_134A, MUTEE162A_E163A, MUTER133A_R134A_E162A_E163A were measured using the Octet Red96 system (ForteBio, Pall Life Sciences) following the manufacturer’s protocols. The optical probes coated with anti-GST were first loaded with 500 nM GST tagged proteins before kinetic binding analyses. The experiment was performed in 96-well plates maintained at 30 °C. Each well was loaded with 200 μL reaction volume for the experiment. The binding buffer used in these experiments contained 1× PBS supplemented with 2% DMSO, 0.02% Tween20. The concentrations of the Stomidazolone as the analyte in the binding buffer were 100, 50, 25, 12.5, 6.25, 3.12, and 1.56 μM. There was no binding of the analytes to the unloaded probes as shown by the control wells. Binding kinetics to all seven concentrations of the analytes were measured simultaneously using default parameters on the instrument. The data were analyzed using the Octet data analysis software. The association and dissociation curves were fit with the 1:1 homogeneous ligand model. The kobs (observed rate constant) values were used to calculate Kd, with steady-state analysis of the direct binding. See Supplementary Table 3 for details.

[2] = target: T2, FAMA_ACTL (Arabidopsis thaliana, UniProt Q56YJ8)
T2 construct: FAMA-ACTL (306-414); GST (N, cleaved yes); made in house; host or cells: E. coli BL21
T2 sequence (Q56YJ8 306-414): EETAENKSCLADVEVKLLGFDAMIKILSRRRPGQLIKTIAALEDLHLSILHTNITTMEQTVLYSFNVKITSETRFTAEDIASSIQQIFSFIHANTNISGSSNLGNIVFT
Source text: as §1, §2

[3] = target: T3, MUTE_ACTLR133A_R134A (Arabidopsis thaliana, UniProt Q9M8K6, R133A/R134A); conditions: for koff: read-out: kdis(1/s), MUTE_R133A_R134A on Anti-GST sensor
T3 construct: MUTE-ACTL (114-202); made in house; host or cells: E. coli BL21
T3 sequence (Q9M8K6 114-202 R133A/R134A): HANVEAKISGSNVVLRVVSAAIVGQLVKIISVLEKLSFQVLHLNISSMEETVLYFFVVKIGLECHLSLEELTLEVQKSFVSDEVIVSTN
Source text: as §1, §2

[4] = BLI steady state, read-out: KD (SS)
[5] = MUTE_R133A_R134A on Anti-GST sensor, Stomid 3.12 µM, rep-1, rep-2
[6] = MUTE_R133A_R134A on Anti-GST sensor, Stomid 6.25 µM, rep-1, rep-2
[7] = MUTE_R133A_R134A on Anti-GST sensor, Stomid 12.5 µM, rep-1, rep-2
[8] = MUTE_R133A_R134A on Anti-GST sensor, Stomid 25 µM, rep-1, rep-2
[9] = MUTE_R133A_R134A on Anti-GST sensor, Stomid 50 µM, rep-1, rep-2
[10] = MUTE_R133A_R134A on Anti-GST sensor, Stomid 100 µM, rep-1, rep-2
[11] = MUTE_R133A_R134A on Anti-GST sensor, Stomid 200 µM, rep-1, rep-2

T1 sequence (Q700C7 285-364): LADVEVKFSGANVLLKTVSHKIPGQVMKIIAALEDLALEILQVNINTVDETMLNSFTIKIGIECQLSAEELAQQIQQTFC

Work on `O=C1C(c2ccccc2)=NC(NS(=O)(=O)c2ccccc2)(c2ccccc2)N1S(=O)(=O)c1ccccc1` (stereo not drawn) [Stomidazolone] yielded a Kd [1, 4] of 95.2 ± 3.8 µM, a Kd ([1]; BLI, read-out: KD) of 88.1 ± 1.1 µM and a Kd [2, 4] of 105 ± 13.8 µM. The Kd ([2]; BLI, read-out: KD) was 95.2 ± 3.5 µM, the Kd ([3]; BLI, MUTE_ACTL R133A_R134A) was 120 ± 5.5 µM and the Kd [3, 5] was 127 µM and 126 µM. The RMax [3, 5] was 0.03 and 0.048, the “Req/Rmax(%)” value [3, 5] was 93.1% and 100% and the Response [3, 5] was 0.027 and 0.0456. The Kd [3, 6] was 128 µM and 127 µM, the RMax [3, 6] was 0.06 and 0.08 and the “Req/Rmax(%)” value [3, 6] was 100%. For the same compound, the Response [3, 6] was 0.058 and 0.079, the “kobs” value [3, 6] was 0.00193 s⁻¹ and 0.00258 s⁻¹ and the “kon” value [3, 6] was 976 M⁻¹ s⁻¹. The Kd [3, 7] was 126 µM and 124 µM, the RMax [3, 7] was 0.092 and 0.085 and the “Req/Rmax(%)” value [3, 7] was 93.1% and 100%. The Response [3, 7] was 0.092 and 0.081, the “kdis” value [3, 7] was 0.124 s⁻¹ and the Kd [3, 8] was 128 µM and 126 µM. The “Req/Rmax(%)” value [3, 8] was 78.8% and 93.9%, the “kdis” value [3, 8] was 0.123 s⁻¹ and the “kobs” value [3, 8] was 0.00186 s⁻¹ and 0.00281 s⁻¹. For the same compound, the “kon” value [3, 8] was 975 M⁻¹ s⁻¹, the Kd [3, 9] was 127 µM and 125 µM and the RMax [3, 9] was 0.195 and 0.225. For the same compound, the Response [3, 9] was 0.193 and 0.2221, the “kdis” value [3, 9] was 0.122 s⁻¹ and the “kon” value [3, 9] was 976 M⁻¹ s⁻¹. For the same compound, the Kd [3, 10] was 130 µM and 127 µM, the RMax [3, 10] was 0.244 and 0.289 and the “Req/Rmax(%)” value [3, 10] was 96.5% and 96.6%. The Response [3, 10] was 0.242 and 0.284, the “kobs” value [3, 10] was 0.00717 s⁻¹ and 0.00706 s⁻¹ and the “kon” value [3, 10] was 980 M⁻¹ s⁻¹. For the same compound, the Kd [3, 11] was 127 µM and 130 µM, the RMax [3, 11] was 0.344 and 0.38 and the “Req/Rmax(%)” value [3, 11] was 99.9% and 99.8%. The Response [3, 11] was 0.341 and 0.375, the “kdis” value [3, 11] was 0.125 s⁻¹ and the “kobs” value [3, 11] was 0.0285 s⁻¹ and 0.0284 s⁻¹. For the same compound, the “kon” value [3, 11] was 960 M⁻¹ s⁻¹, the koff ([3]; Stomid 3.12 µM, rep-1, rep-2) was 0.122 s⁻¹ and the koff ([3]; Stomid 6.25 µM, rep-1, rep-2) was 0.124 s⁻¹. For the same compound, the koff ([3]; Stomid 12.5 µM, rep-1, rep-2) was 0.125 s⁻¹, the koff ([3]; Stomid 25 µM, rep-1, rep-2) was 0.125 s⁻¹ and the koff ([3]; Stomid 50 µM, rep-1, rep-2) was 0.123 s⁻¹. For the same compound, the koff ([3]; Stomid 100 µM, rep-1, rep-2) was 0.125 s⁻¹, the koff ([3]; Stomid 200 µM, rep-1, rep-2) was 0.126 s⁻¹ and the kon ([3]; read-out: kon(1/Ms), MUTE_R133A_R134A on Anti-GST sensor, Stomid 3.12 µM, rep-1, rep-2) was 966 M⁻¹ s⁻¹. For the same compound, the kon ([3]; read-out: kon(1/Ms), MUTE_R133A_R134A on Anti-GST sensor, Stomid 6.25 µM, rep-1, rep-2) was 970 M⁻¹ s⁻¹, the kon ([3]; read-out: kon(1/Ms), MUTE_R133A_R134A on Anti-GST sensor, Stomid 12.5 µM, rep-1, rep-2) was 990 M⁻¹ s⁻¹ and the kon ([3]; read-out: kon(1/Ms), MUTE_R133A_R134A on Anti-GST sensor, Stomid 25 µM, rep-1, rep-2) was 980 M⁻¹ s⁻¹. The kon ([3]; read-out: kon(1/Ms), MUTE_R133A_R134A on Anti-GST sensor, Stomid 50 µM, rep-1, rep-2) was 970 M⁻¹ s⁻¹, the kon ([3]; read-out: kon(1/Ms), MUTE_R133A_R134A on Anti-GST sensor, Stomid 100 µM, rep-1, rep-2) was 960 M⁻¹ s⁻¹ and the kon ([3]; read-out: kon(1/Ms), MUTE_R133A_R134A on Anti-GST sensor, Stomid 200 µM, rep-1, rep-2) was 990 M⁻¹ s⁻¹.

Reference: article PMC11500415, “Chemical inhibition of stomatal differentiation by perturbation of the master-regulatory bHLH heterodimer via an ACT-Like domain” (Nature Communications, 2024)
